In patent publication US20040198795A1, “Substituted imidazoliums and methods of use therefor” (priority 1996, published 2004):

Key:
[1] = molecular target: cross-linking of glycated bovine serum albumin (AGE-BSA) to the rat tail tendon collagen (Bos taurus, UniProt P02769); assay: Inhibition of cross-linking of AGE-BSA to rat tail tendon collagen coated plate (ELISA); details: for % Inh.: at 10 mM, PBS pH 7.4, 37° C., 4 hours
Description: The following method was used to evaluate the ability of the compounds of the present invention to inhibit the cross-linking of glycated bovine serum albumin (AGE-BSA) to the rat tail tendon collagen coated 96-well plate.
The glycated BSA was then extensively dialyzed against phosphate buffer solution (PBS) for 48 hours with additional 5 times buffer exchanges. […] The blocking solution was removed from the wells by washing the plate twice with PAS-Tween 20 solution (0.05% Tween 20) using a NUNC-multiprobe or Dynatech ELISA-plate washer. […] The unbrowned BSA in PBS buffer with or without testing compound were added to the separate wells as the blanks. The uncross-linked AGE-BSA was then removed by washing the wells three times with PBS-Tween buffer. The cross-linked AGE-BSA to the tail tendon coated plate was then quantitated by the polyclonal antibody raised against AGE-RNase. After a one-hour incubation period, AGE antibody was removed by washing 4 times with PBS-Tween.
The bound AGE antibody was then detected with the addition of horseradish peroxidase-conjugated secondary antibody, e.g., goat anti-rabbit immunoglobulin and incubation for 30 minutes. […] The reaction was allowed for an additional 15 minutes and the absorbance was read at 410 nm in a Dynatech plate reader.
The % inhibition of each test compound was calculated as follows.

[2] = molecular target: T1, AGE-BSA previously crosslinked to the collagen (Bos taurus, UniProt P02769); assay: Sandwich enzyme immunoassay for breaking of AGE-BSA cross-linked to collagen; type: biochemical; details: 10 mM, 16 hours, 37° C.; for % breaking, Pr AbαAGE: primary antibody anti-AGE-RNase; for % breaking, PrAbαBSA: primary antibody anti-BSA
T1 construct: Bovine Serum Albumin (Type V), (BSA) Calbiochem; purchased Calbiochem (BSA, Type V); Collaborative Biomedical Products (Biocoat collagen plates)
T1 sequence (P02769 25-607): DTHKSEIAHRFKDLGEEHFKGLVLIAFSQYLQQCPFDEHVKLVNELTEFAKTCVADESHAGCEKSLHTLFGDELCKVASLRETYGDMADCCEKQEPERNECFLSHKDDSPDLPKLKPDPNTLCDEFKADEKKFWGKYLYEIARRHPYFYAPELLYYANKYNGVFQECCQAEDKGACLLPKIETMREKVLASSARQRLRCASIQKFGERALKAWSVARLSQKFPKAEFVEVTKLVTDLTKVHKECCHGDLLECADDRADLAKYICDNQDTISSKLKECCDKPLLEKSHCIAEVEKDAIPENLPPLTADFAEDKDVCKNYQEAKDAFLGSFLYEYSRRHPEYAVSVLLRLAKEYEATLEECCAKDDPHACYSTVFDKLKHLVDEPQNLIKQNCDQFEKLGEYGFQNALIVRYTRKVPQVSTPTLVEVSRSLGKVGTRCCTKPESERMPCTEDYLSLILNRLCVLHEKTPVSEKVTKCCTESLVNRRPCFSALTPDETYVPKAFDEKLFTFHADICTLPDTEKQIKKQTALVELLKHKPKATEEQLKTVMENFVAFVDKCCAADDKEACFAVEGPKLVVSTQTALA
Description: In order to ascertain the ability of the compounds of the instant invention to “break” or reverse already formed advanced glycosylation endproducts, a novel sandwich enzyme immunoassay was developed which detects breaking of AGE (Advanced glycosylation endproduct) moieties from AGE-crosslinked protein. […] Following an incubation period of 16 hours (37° C.) cross-link-breaking is detected using an antibody raised against AGE-ribonuclease or with an antibody against BSA. […] Details of the assay are as follows:
1. AGE-BSA stock solutions were prepared as follows. Sodium phosphate buffer (0.4 M) was prepared by dissolving 6 grams of monobasic sodium phosphate in 100 ml of distilled water, 7 grams of dibasic sodium phosphate (0.4 M) in 100 ml of distilled water and adjusting the pH of the dibasic solution to 7.4 with the monobasic solution. Sodium azide (0.02 grams) was added per 100 ml volume to inhibit bacterial growth. The BSA solution was prepared as follows: 400 mg of Type V BSA (bovine serum albumin) was added for each ml of sodium phosphate buffer (above). A 400 mM glucose solution was prepared by dissolving 7.2 grams of dextrose in 100 ml of sodium phosphate buffer (above). The BSA and glucose solutions were mixed 1:1 and incubated at 37° C. for 12 weeks. The pH of the incubation mixture was monitored weekly and adjusted to pH 7.4 if necessary. After 12 weeks, the AGE-BSA solution was dialyzed against PBS for 48 hours with four buffer changes, each at a 1:500 ratio of solution to dialysis buffer.
2. Working solutions for crosslinking and breaking studies were prepared as follows. Test compounds were dissolved in PBS and the pH was adjusted to pH 7.4 if necessary. […] The concentration of AGE-BSA necessary to achieve the optimum sensitivity was determined by initial titration of each lot of AGE-BSA.
1. Biocoat plates were blocked with 300 μl of “Superbloc”. Plates were blocked for one hour at room temperature and were washed with PBS-Tween three times with the Dynatech platewasher before addition of test reagents.
2. Each experiment was set up in the following manner. The first three wells of the Biocoat plate were used for the reagent blank. Fifty microliters of solutions AGE-BSA were added to test wells in triplicate and only PBS in blank wells.

[3] = test system: AGE receptor on macrophages (RAW 264.7 cells); assay: Radioligand binding assay for upregulation of the AGE receptor on macrophages; type: cell-based; details: iodinated AGE-BSA
Description: To study the effects of test compounds on the upregulation of the AGE receptor on macrophages, the following radioligand binding assay was utilized.
2. One day prior to assay, 1.0 ml of cells are plated per well onto 24 well culture plates at a concentration of 0.75×10^6 cells per ml.
4. […] One ml of the ligand mixture is added to the appropriate wells and the plates are place at 4° C. on a rocking platform for four hours.
6. To each well is added 1.0 ml of 1.0 N sodium hydroxide for fifteen to thirty minutes. The disrupted cells are removed using a cotton tipped swab. After placing the swab in the appropriate tube for gamma counting, the medium remaining in each well is collected and added to the tubes containing the swabs. Each well is washed twice with 0.5 ml of 1.0 N sodium hydroxide which is then added to the appropriate tubes.
7. The samples are counted in an LKB gamma counter and the final numbers are used to determine the percent specific binding as well as the Ka, the Kd and the number of receptors per cell.

[4] = test system: fixed protein (gelatin, i.e., collagen) surface; assay: Surface browning experiment on gelatin/paper disks with glucose-6-phosphate; details: Peridex at final 0.04% chlorhexidine, 100 Mm glucose-6-phosphate, one week at 50° C., pH 7.4
Description: To further study the ability of inhibitors of nonenzymatic browning to prevent the discoloration of protein on a surface, such as that which occurs on the tooth surface, the following surface browning experiment is performed. As a substitute for a pellicle-covered tooth surface, unexposed and developed photographic paper is used to provide a fixed protein (gelatin, i.e., collagen) surface on a paper backing. Five millimeter circles are punched and immersed for one week at 50° C. in a solution of 100 Mm glucose-6-phosphate in a 0.5 M phosphate buffer, pH 7.4, containing 3 Mm sodium azide. Glucose-6-phosphate is a sugar capable of participating in nonenzymatic browning at a more rapid rate than glucose. In addition to the glucose-6-phosphate, chlorhexidine and/or a compound of Formula I are included. After incubation, the gelatin/paper disks are rinsed with water, observed for brown color, and photographed.

[5] = Nordbo 1979; cited from earlier work
[6] = test system: aortic wall protein cross-linking; details: diabetic rats; cited from earlier work
[7] = test system: immunoglobulin trapping in the kidney; details: Brownlee et al. 1986; cited from earlier work
[8] = test system: glomerular basement membrane thickness; details: streptozotocin-diabetic rat model; cited from earlier work
red blood cells = details: in vivo; cited from earlier work

cross-linking of glycated bovine serum albumin (AGE-BSA) to the rat tail tendon collagen, sequence (P02769 25-607): as above

## Cn1cc[n+](CC(=O)c2ccc(Br)cc2)c1.[Br-] [1-methyl-3-[2-(4′-bromophenyl)-2-oxoethyl]-imidazolium bromide]
[1]
  % Inh.: 23%

## COc1ccc(C(=O)C[n+]2ccn(C)c2)cc1.[Br-] [1-methyl-3-[2-(4′-methoxyphenyl)-2-oxoethyl]-imidazolium bromide]
[2]
  % breaking, Pr AbαAGE: 38%
  % breaking, PrAbαBSA: 27%
[3]
  Specific Binding Expressed as % Control, Day 1: 185%
  Specific Binding Expressed as % Control, Day 2: 132%
  Specific Binding Expressed as % Control, Day 3: 145%
  Specific Binding Expressed as % Control, Day 4: 423%

## [H]/N=C(\N/C(=N/[H])NCCCCCCNC(=N)NC(=N)Nc1ccc(Cl)cc1)Nc1ccc(Cl)cc1 [chlorhexidine]
[4]
  Brown color of gelatin/paper disks: significant browning
[5]
  Effect on browning reactions in vitro: catalyze browning reactions

## CCN(CC)c1ccc(C(=O)Cn2cc[n+](C)c2)cc1 [1-Methyl-3-[2-(4′-diethylaminophenyl)-2-oxo-ethyl]-imidazolium bromide]
[1]; rat, 4 h, pH 7.4
  IC50: 1750 µM
[2]
  % breaking, Pr AbαAGE: 32%
  % breaking, PrAbαBSA: 28%

## CCOC(=O)CCCCCn1cc[n+](CC(=O)c2cccc(OC)c2)c1.[Br-] [1-(ethoxycarbonylpentyl)-3-[2-(3′-methoxyphenyl)-2-oxoethyl]-imidazolium bromide]
[1]
  % Inh.: 40%

## 1-methyl-3-[2-(3′-methoxyphenyl)-2-oxoethyl]-imidazolium bromide
[2]
  % breaking, Pr AbαAGE: 20%
  % breaking, PrAbαBSA: 24%
[3]
  Specific Binding Expressed as % Control, Day 1: 125%
  Specific Binding Expressed as % Control, Day 2: 132%
  Specific Binding Expressed as % Control, Day 3: 143%
  Specific Binding Expressed as % Control, Day 4: 360%

## Cn1cc[n+](CC(=O)c2ccccc2)c1.[Br-]
other
  melting point: 108 to 110 °C

## Cn1cc[n+](CC(N)=O)c1.[Br-]
other
  melting point: 183 to 185 °C

## N=C(N)NN [aminoguanidine]
[6]
  Aortic wall protein cross-linking: diminishes aortic wall protein cross-linking
[7]
  Immunoglobulin trapping in the kidney: reduction of immunoglobulin trapping in the kidney
[8]
  Increased glomerular basement membrane thickness: prevented
Red blood cells
  Diabetes-induced changes in the deformability of red blood cells: prevent it

## benzalkonium chloride
[5]
  Effect on browning reactions in vitro: catalyze browning reactions
